# Test results: ChEMBL document CHEMBL1201862, “PubChem BioAssay data set” (2004)
# Active and inactive are the calls of the source.
# What was measured:
# cells [1] = type: functional, cell-based
# cells [2] = type: functional, cell-based; remark: listed apart in the source
# [3] = molecular target: T1, Polyadenylate-binding protein 1 (Homo sapiens, UniProt P11940); experiment: PABP1 MLLE–PAM2 interaction inhibitors, dose response, miRNA deadenylation inhibitor project, biochemical, fluorescence polarization, Cy5-PAM2 peptide, secondary (AID 602260); type: functional; conditions: read-out: IC50_Mean
# T1 sequence (P11940 whole entry): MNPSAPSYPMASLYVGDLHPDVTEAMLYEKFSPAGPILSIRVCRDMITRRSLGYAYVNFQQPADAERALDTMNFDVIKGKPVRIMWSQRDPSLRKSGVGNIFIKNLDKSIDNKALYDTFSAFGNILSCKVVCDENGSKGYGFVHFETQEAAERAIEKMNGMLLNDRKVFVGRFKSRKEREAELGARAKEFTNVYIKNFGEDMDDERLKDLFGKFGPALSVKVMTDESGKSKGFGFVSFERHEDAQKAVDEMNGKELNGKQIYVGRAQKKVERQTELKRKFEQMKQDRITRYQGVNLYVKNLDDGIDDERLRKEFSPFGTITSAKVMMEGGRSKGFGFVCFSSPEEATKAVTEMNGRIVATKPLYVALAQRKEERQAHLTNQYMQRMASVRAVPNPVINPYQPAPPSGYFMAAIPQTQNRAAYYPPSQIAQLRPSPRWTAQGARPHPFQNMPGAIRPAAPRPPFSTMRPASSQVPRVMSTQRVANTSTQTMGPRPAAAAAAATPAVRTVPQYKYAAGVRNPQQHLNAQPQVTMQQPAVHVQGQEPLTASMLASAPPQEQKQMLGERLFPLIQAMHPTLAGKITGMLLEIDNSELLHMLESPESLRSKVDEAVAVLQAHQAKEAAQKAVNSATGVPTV
# [4] = molecular target: T1, Polyadenylate-binding protein 1; experiment: PABP1 MLLE–PAM2 binding inhibitor potency, dose response, biochemical, fluorescence polarization, FITC-PAM2 peptide (AID 602259); type: functional; conditions: read-out: IC50_Mean
# [5] = molecular target: Induced myeloid leukemia cell differentiation protein Mcl-1 (Homo sapiens, UniProt Q07820); type: functional
# Induced myeloid leukemia cell differentiation protein Mcl-1, sequence (Q07820 whole entry): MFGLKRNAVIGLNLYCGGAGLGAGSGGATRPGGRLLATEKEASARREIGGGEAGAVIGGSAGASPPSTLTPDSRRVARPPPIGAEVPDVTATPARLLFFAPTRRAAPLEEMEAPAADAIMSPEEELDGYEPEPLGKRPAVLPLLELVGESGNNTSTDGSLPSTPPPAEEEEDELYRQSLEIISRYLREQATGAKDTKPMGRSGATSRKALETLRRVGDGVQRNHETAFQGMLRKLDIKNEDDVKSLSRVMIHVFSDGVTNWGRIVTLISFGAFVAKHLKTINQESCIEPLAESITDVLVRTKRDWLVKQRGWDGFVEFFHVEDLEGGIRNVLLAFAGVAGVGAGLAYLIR
# [6] = molecular target: Luciferin 4-monooxygenase (Photinus pyralis, UniProt P08659); experiment: firefly luciferase enzyme inhibitors, dose response, biochemical, luminescence (AID 1891)
# Luciferin 4-monooxygenase, sequence (P08659 whole entry): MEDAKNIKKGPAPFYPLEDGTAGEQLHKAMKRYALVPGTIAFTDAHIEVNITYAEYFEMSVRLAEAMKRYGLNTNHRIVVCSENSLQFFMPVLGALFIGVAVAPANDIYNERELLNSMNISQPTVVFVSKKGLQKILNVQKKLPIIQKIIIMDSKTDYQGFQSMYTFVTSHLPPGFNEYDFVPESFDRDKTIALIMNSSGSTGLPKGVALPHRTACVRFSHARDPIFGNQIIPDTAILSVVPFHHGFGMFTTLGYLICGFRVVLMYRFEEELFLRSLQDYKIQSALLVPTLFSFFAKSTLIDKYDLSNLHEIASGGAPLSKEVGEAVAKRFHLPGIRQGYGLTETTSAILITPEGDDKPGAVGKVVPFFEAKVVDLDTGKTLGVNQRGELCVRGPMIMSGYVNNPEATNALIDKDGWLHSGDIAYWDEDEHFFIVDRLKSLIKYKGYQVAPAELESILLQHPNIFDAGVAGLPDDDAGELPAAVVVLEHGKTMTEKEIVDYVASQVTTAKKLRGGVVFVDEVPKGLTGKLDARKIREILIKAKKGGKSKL
# [7] = Luminescence Cell-Based Dose Confirmation HTS to Identify Inhibitors of Platelet Dense Granule Release. [Related pubchem assays: 1663 (Primary HTS), 1678 (Summary of Project)]; type: functional
# Protein skinhead-1 = molecular target: T2, Protein skinhead-1 (Caenorhabditis elegans, UniProt P34707); type: functional
# T2 sequence (P34707 whole entry): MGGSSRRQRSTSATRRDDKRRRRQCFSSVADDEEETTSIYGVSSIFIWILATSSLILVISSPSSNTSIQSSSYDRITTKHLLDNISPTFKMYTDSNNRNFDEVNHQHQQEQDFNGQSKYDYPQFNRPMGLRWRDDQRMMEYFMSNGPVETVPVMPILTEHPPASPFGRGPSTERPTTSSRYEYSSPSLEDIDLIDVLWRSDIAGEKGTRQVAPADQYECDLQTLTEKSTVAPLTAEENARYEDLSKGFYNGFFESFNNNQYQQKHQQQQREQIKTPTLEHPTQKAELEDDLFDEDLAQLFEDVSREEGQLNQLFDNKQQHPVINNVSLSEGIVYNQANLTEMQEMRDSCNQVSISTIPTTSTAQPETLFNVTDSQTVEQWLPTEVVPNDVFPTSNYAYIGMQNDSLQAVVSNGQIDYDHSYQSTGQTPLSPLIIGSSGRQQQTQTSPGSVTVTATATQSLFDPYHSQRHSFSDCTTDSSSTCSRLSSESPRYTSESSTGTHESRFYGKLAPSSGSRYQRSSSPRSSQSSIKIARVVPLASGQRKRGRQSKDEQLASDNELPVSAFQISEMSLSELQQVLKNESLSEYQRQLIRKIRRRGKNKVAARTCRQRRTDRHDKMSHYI
# Aminopeptidase N = molecular target: T3, Aminopeptidase N (Plasmodium falciparum FcB1/Columbia, UniProt O96935); experiment: P. falciparum M1AAP inhibitors, biochemical, fluorogenic H-Leu-NHMec substrate, 1536-well (AID 1445); set-up: species or system Plasmodium falciparum 3D7, 3D7
# T3 sequence (O96935 whole entry): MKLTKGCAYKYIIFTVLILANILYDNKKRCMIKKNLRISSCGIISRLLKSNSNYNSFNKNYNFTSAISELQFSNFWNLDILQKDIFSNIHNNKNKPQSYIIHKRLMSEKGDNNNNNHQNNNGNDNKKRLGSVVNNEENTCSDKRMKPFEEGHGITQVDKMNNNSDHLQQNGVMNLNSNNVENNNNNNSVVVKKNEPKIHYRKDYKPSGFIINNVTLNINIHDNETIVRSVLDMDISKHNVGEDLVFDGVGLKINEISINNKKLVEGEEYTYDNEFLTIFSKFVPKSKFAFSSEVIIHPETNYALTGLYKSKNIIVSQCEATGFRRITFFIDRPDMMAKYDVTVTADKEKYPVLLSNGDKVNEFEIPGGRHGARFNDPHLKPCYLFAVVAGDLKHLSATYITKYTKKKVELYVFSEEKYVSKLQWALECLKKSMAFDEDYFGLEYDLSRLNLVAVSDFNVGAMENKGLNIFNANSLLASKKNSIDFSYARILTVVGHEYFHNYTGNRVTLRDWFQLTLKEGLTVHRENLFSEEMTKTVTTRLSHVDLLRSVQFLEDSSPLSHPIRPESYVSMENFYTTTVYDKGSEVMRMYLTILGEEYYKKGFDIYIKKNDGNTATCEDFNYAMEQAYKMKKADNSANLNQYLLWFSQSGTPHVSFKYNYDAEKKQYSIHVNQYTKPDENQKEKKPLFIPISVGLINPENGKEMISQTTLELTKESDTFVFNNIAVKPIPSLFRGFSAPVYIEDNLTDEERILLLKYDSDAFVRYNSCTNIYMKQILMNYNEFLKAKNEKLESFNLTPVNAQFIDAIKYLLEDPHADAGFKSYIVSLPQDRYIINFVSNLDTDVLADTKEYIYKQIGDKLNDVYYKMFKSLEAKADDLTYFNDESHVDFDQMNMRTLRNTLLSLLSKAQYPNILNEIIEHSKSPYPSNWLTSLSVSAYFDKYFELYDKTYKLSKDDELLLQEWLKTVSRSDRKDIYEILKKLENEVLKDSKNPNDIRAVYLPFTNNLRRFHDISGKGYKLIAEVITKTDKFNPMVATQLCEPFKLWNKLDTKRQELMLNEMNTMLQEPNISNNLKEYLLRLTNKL
# [8] = molecular target: Glyceraldehyde-3-phosphate dehydrogenase (Homo sapiens, UniProt P04406)
# Glyceraldehyde-3-phosphate dehydrogenase, sequence (P04406 whole entry): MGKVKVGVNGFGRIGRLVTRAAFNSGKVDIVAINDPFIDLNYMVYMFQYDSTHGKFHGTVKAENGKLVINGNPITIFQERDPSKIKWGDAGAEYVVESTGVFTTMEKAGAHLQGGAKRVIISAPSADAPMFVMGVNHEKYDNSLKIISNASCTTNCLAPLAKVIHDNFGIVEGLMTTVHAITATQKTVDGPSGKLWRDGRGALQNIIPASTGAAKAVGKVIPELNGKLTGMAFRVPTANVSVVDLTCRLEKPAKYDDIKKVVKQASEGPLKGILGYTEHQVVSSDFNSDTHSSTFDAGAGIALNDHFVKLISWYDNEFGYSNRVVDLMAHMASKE
# [9] = Luminescence Cell-Based Dose Response HTS to Identify Activators of Luciferase Translation or Activity in H4 […] Cells. [Related pubchem assays: 1829 (Project Summary), 1814 (Primary HTS)]; type: functional
# H4 = experiment: Luminescence Cell-Based Dose Response HTS to Identify Activators of 5'UTR Stem-Loop Driven Prion Protein mRNA Translation in H4 Neuroglioblastoma Cells. [Related pubchem assays: 1829 (Project Summary), 1814 (Primary HTS)]; type: functional; conditions: Homo sapiens
# Large T antigen = Large T antigen (Simian virus 40, UniProt P03070); type: functional, Betapolyomavirus macacae;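 further: Confirmatory-stage PubChem screen for compounds that inhibit SV40 T antigen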
# Large T antigen, sequence (P03070 whole entry): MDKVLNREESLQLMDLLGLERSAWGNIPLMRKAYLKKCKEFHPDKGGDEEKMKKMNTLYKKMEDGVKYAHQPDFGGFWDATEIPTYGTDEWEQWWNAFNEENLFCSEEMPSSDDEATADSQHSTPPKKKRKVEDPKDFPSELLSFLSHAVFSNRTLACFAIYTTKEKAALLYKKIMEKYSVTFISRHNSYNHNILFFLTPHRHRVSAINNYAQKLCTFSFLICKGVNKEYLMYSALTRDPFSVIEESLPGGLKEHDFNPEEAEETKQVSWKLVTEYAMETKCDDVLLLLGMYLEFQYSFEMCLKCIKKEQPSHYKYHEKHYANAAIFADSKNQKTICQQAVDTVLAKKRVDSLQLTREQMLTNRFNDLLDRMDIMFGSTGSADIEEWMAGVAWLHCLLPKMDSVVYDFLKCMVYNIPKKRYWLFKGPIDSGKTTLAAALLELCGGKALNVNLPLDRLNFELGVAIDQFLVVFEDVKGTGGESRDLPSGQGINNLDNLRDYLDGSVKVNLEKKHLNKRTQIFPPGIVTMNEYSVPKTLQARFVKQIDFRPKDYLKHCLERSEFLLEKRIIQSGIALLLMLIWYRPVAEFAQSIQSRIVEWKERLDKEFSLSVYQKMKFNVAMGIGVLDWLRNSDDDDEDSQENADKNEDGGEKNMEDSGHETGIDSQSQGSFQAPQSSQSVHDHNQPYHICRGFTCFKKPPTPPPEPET
# [10] = molecular target: T4, Alkaline phosphatase, tissue-nonspecific isozyme (Homo sapiens, UniProt P05186); experiment: human TNAP enzyme inhibitors, SAR follow-up, biochemical, luminescent, dose response (AID 1056)
# T4 sequence (P05186 whole entry): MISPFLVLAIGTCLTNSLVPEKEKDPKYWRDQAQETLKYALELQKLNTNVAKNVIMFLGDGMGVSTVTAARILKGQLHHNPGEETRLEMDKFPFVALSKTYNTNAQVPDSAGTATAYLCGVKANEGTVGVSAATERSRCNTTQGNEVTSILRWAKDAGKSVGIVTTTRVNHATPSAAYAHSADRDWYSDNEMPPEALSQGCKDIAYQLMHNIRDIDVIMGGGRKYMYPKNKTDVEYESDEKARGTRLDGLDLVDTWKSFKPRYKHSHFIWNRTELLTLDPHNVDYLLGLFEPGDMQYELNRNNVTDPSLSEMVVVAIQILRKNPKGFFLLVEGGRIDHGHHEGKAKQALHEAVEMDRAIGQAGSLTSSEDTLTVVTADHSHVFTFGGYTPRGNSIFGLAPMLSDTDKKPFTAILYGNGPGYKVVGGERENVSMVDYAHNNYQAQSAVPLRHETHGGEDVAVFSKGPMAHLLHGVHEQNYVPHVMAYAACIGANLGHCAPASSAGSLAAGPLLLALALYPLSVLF
# [11] = inhibitors of HIV Env-driven cell fusion, dose response, cherry-pick (AID 652057); type: functional, cell-based
# [12] = ZM109 Env clade C HIV-1 fusion inhibitors, dose response, HeLa effector, CEM target cells, luciferase, cherry-pick (AID 652058); type: functional, cell-based
# [13] = inhibitors of clade B AD8 Env fusion, dose response, cell-based, cherry-pick (AID 652062); type: functional;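 further: luciferase signal from cell-cell fusion driven by HIV-1 clade B AD8 Env; potency is for inhibitors of fusion seen as a drop in luminescence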
# [14] = A549 cell cytotoxicity, dose response, cytotoxicity control, plate reader, cherry-pick, antagonist series (AID 743412); type: functional, cell-based
# [15] = HepG2 cell cytotoxicity, dose response, cytotoxicity control, plate reader, cherry-pick, antagonist series (AID 743416); type: functional, cell-based
# [16] = LGR2 antagonists, dose response, cell-based, HEK293, CRE-luciferase reporter, cherry pick, set 2 (AID 743343); type: functional;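 further: transfected cells were stimulated with diluted bursicon conditioned medium after compound addition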
# [17] = MC4R antagonists, dose response, counter-screen for LGR2 antagonist project, cell-based, plate reader, cherry pick (AID 743444); type: functional;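 further: transfected HEK 293 cells stimulated with alpha-MSH peptide; potency of inhibitors of the alpha-MSH evoked signal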
# [18] = HEK293 cell cytotoxicity, dose response, cytotoxicity control, plate reader, cherry-picked samples (AID 743446); type: functional, cell-based
# [19] = P. falciparum Dd2 growth inhibitors, dose response, SYBR Green, cherry-picked samples (AID 1159567); type: functional, cell-based
smiles,measurement,setting,value
CC(=O)Nc1ccc(NC(=O)CCC(=O)OCC(=O)c2ccc(F)cc2)cc1,EC50,cells [1],> 350 µM (not active)
same,EC50,cells [2],> 350 µM (not active)
CCOC(=O)c1cnc2ccc(Cl)cc2c1NCCN(C)C,IC50,[3],> 66 µM (inactive)
same,IC50,[4],> 66 µM (inactive)
O=C(Nc1ccc(Cl)cc1)Nc1nnc(/C=C/c2ccccc2)s1,IC50,[5],5.89 µM (active)
O=C(/C=C/Nc1ccc(F)cc1F)c1cccs1,EC50,[6],1.09 µM (active)
same,EC50,[7],4.23 µM (active)
same,IC50,Protein skinhead-1,73.4 µM (inactive)
CCOC(=O)c1[nH]cnc1C(=O)Nc1ccncc1,IC50,Aminopeptidase N,26 µM (active)
CSc1nc(C)cc(C)c1C#N,EC50,cells [1],> 350 µM (not active)
same,EC50,cells [2],> 350 µM (not active)
Cn1c(N)c(C(=O)COC(=O)c2cc(-c3ccco3)nc3ccccc23)c(=O)n(Cc2ccccc2)c1=O,IC50,[5],2.95 µM (active)
Cc1nc2ccccc2nc1OCc1ccccc1,IC50,Protein skinhead-1,18.2 µM (active)
COc1cccc(/C=C2\CC(C)Cc3c2nc2ccccc2c3C(=O)O)c1OC (stereo unspecified),IC50,Protein skinhead-1,> 100 µM (inactive)
COc1cc(/C=C/C(=O)Nc2cc(S(=O)(=O)N3CCOCC3)ccc2N2CCCC2)cc(OC)c1OC,IC50,[3],> 66 µM (inactive)
same,IC50,[4],> 66 µM (inactive)
CS(=O)(=O)c1sc2nc(-c3cccs3)cc(-c3ccccc3)c2c1N,IC50,Aminopeptidase N,81.1 µM (active)
Cn1ncc(Br)c1NC(=O)CSc1ccc(Cl)cc1,EC50,cells [1],> 350 µM (not active)
same,EC50,cells [2],181 µM (active)
Cc1cc(N2C(=O)c3ccc(C(=O)NCc4ccccc4)cc3C2=O)no1,IC50,Aminopeptidase N,18.6 µM (active)
Clc1ccc(-n2nnc(-c3nccs3)n2)cc1Cl,IC50,Protein skinhead-1,> 100 µM (inactive)
COc1ccc(Nc2nc(C(=O)NCCCN3CCOCC3)cs2)cc1,IC50,Protein skinhead-1,> 100 µM (inactive)
Cc1ccc(-n2nnnc2SCC(=O)NC(C(=O)O)(c2ccccc2)c2ccccc2)cc1C,IC50,Aminopeptidase N,29.2 µM (active)
Cc1onc(-c2ccccc2)c1NC(=O)N(Cc1ccccc1)C(C)C,EC50,cells [1],> 350 µM (not active)
same,EC50,cells [2],> 350 µM (not active)
C=CCN1C(=O)c2ccccc2Sc2ccc(C(=O)N3CCN(C)CC3)cc21,EC50,cells [1],> 350 µM (not active)
same,EC50,cells [2],> 350 µM (not active)
Cc1ccc(-c2c(C)sc3ncn(CC(=O)N4CCOCC4)c(=O)c23)cc1C,IC50,Aminopeptidase N,12.4 µM (active)
CCOC(=O)c1sc(=S)n(-c2cccc(OC)c2)c1N,IC50,[3],> 66 µM (inactive)
same,IC50,[4],> 66 µM (inactive)
Cc1ccc(C)c(CSc2ncccc2C(=O)O)c1,IC50,Aminopeptidase N,77.7 µM (active)
O=C(O)CCCCCN1C(=O)C(O)=C(C(=O)/C=C/c2ccccc2)C1c1ccccc1[N+](=O)[O-] (stereo unspecified),IC50,[3],> 66 µM (inactive)
same,IC50,[4],> 66 µM (inactive)
CN(C)CCCN(C(=O)CCS(=O)(=O)c1ccccc1)c1nc2cc3c(cc2s1)OCO3,EC50,cells [1],> 350 µM (not active)
same,EC50,cells [2],> 350 µM (not active)
COc1cccc(N2CCN(C3=C(Cl)C(=O)N(c4ccc(C(F)(F)F)cc4)C3=O)CC2)c1,IC50,[8],> 50 µM (inconclusive)
Cc1ccc2c(c1)NC(=O)c1cccnc1N2,EC50,[9],61.7 µM (active)
same,EC50,H4,> 120 µM (not active)
same,IC50,Large T antigen,10.2 µM (active)
same,IC50,[5],10.5 µM (not active)
CN(Cc1ccccc1)S(=O)(=O)c1ccc(C(=O)O)o1,IC50,[8],> 100 µM (not active)
COc1ccccc1CNC(=O)C1CCN(C(=O)N(C)C)CC1,IC50,Protein skinhead-1,> 100 µM (inactive)
O=C(Cn1ccnc1)c1ccc(O)c(O)c1,IC50,[10],> 100 µM (inactive)
O=C(C[C@@H]1C=C[C@H](NC(=O)c2ccccc2)[C@H](CO)O1)NCc1ccc(Oc2ccccc2)cc1,AC50,[11],24.7 µM (active)
same,AC50,[12],24.1 µM (active)
same,AC50,[13],35 µM (active)
COc1ccc(S(=O)(=O)Nc2ccc3c(c2)CC(=O)N([C@@H](C)CO)C[C@H](C)[C@H](CN(C)S(=O)(=O)c2cccs2)O3)cc1,AC50,[11],7.42 µM (active)
same,AC50,[12],1.15 µM (active)
same,AC50,[13],25.1 µM (active)
COc1ccc(CNC(=O)N(C)C[C@H]2OCc3ccccc3-c3c(n(C)c4ccccc34)C(=O)N([C@@H](C)CO)C[C@@H]2C)cc1,AC50,[11],< 0.26 µM (active)
same,AC50,[12],< 0.26 µM (active)
same,AC50,[13],< 0.26 µM (active)
O=C(Nc1cc2ccccc2oc1=O)c1ccccc1,AC50,[14],31.5 µM (active)
same,AC50,[15],41 µM (active)
same,AC50,[16],1.69 µM (active)
same,AC50,[17],3.08 µM (active)
same,AC50,[18],37.2 µM (active)
Cc1ccc(S(=O)(=O)N2CCN(c3ccccn3)CC2)cc1,EC50,cells [1],> 350 µM (not active)
same,EC50,cells [2],> 350 µM (not active)
COc1cccc(-c2ncn(CCc3ccccc3OC)c2CC(C)C)c1,AC50,[14],23.6 µM (active)
same,AC50,[15],22.3 µM (active)
same,AC50,[16],23.6 µM (active)
same,AC50,[17],22.2 µM (active)
same,AC50,[18],> 52 µM (inactive)
Clc1cccc(/C=N/Nc2nc(Cl)nc3ccccc23)c1,IC50,[5],19 µM (not active)
CN(C)CC(=O)N1[C@H](CO)[C@H](c2ccc(-c3cccc(C(=O)N(C)C)c3)cc2)[C@@H]1C#N,AC50,[19],7.56 µM (active)
